In US20170066717A1, “NEW PHENYLAZETIDINECARBOXYLATE OR -CARBOXAMIDE COMPOUNDS” (INVENTIVA, priority 2014, published 2017):

Experiments:
[1] = system: dopaminergic neurons of primary culture of rat embryo mesencephalon treated with MPP+; assay: Neuroprotection in primary culture of rat embryo mesencephalon treated with MPP+ (count of tyrosine hydroxylase expressing cells); type: cell-based; conditions: recombinant human BDNF 10 ng/mL = 100%, 2 days with MPP+
In short: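 Rat embryo (E15) mesencephalon cultures, 5 days, then MPP+ with or without compound on day 6 for 2 days. Tyrosine hydroxylase-immunolabelled cells counted by image analysis; activity expressed as percent of recombinant human BDNF (10 ng/mL) reference, set at 100%.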

[2] = target: T1, NURR-1/RXRα (Homo sapiens, UniProt P19793); assay: Transactivation test, NURR-1-Gal4/RXRα, luciferase reporter in Cos-7 cells; type: cell-based; conditions: for Emax: COS-7, induction level relative to reference XCT0135908 at 2×10^−5 M (=100%), read-out: hNurr1_RXRaFL Emax (%); for EC50: Cos-7 cells, NURR-1-Gal4/RXRα, luciferase reporter, read-out: hNurr1_RXRaFL EC50
T1 construct: expressed in transfected cells; host or cells: Cos-7 cells

[3] = Plasma pharmacokinetics in mice after oral administration; type: in vivo; conditions: mouse, male C57/Bl6 mice, oral 10 mg/kg; for AUC: sampling 15 min to 7 h, log-linear trapezoidal method, read-out: AUCplasma; for Cmax: suspension in 1% methylcellulose/0.1% Poloxamer 188
Description: (§1) Three series of in vivo tests were carried out with compounds representative of the invention, for the purpose of determining their pharmacokinetic plasma profile and their brain penetration.
1. Study of the Plasma Phannacokinectis in Mice After Oral Administration
Male C57/B16 mice (25-30 g) originating from the establishment Janvier, Le Genest-St-Isle, France were used for this study (9 mice per dose). The animals were fed with standard feed for rodents (Purina Mills, St. Louis, Mo.), placed in cages and subjected to light/darkness cycles of 12 h/12 h, the temperature of the room being maintained at 22±2° C. and the humidity level at 55±10%.
The mice were not deprived food before the administration. Water was provided at will throughout the study. The test compound was admistered orally at 10 mg/kg. For the oral administration at 10 mg/kg, the animals were green, by gavage, 10 mL/kg of a suspension of the test compound, prepared in 1% methylcellulose, 400 cps/0.1% Poloxamer 188/water.
The animals were sacrificed under anesthesia at times 15 min, 30 min, 1 h, 3 h and 7 h after gavage. The blood was collected at each time, and from each animal sacrificed 0.5 mL of blood collected in 1.5 mL tubes containing 20 μL of evaporated anticoagulant (solution of sodium heparinate at 1000 IU/mL) was centrifuged at 4500 g for 3 min in order to obtain approximately 200 μL of plasma. The plasma was divided up into 2 aliquots of 70 μL minimum, which were stoted at −20° C. until they were treated by protein precipitation and then analysis by liquid chromatography coupled to tandem mass spectrometry (LC-MS/MS) in order to quantify the compound tested.
The pharmacokinetic plasma parameters in the mice after oral administration were determined using a non-compartmental approach with the Phoenix WinNonLin software. The area under the curve (AUC0-1) was determined bv the log-linear trapezoidal method. The tesults are brought together in the following table.

[4] = Brain penetration in rats after intravenous administration; type: in vivo; conditions: rat; for Kp at 4 h: male, Wistar, intravenous, 4 mg/kg, ratio of Cmax brain to Cmax plasma after the 4 hours of infusion, rats, read-out: Kp (partition coefficient between the brain and the plasma); for Cmax at 4 h: male Wistar rats, 4 mg/kg iv infusion into the jugular vein for 4 hours, plasma at end of infusion
Description: as §1
2. Study of the Brain Penetration in Rats After Intravenous Administration
Male Wistar rats (250-300 g) originating from the establishment Janvier, Le Genest-St-Isle, France were used for this study (4 rats per study). The animals were fed with standard feed for rodents (Purina Mills, St. Louis, Mo.), placed in cages and subjected to light/darkness cycles of 12 h/12 h, the room temperature being maintained at 22±2° C. and the humidity level at 55±10%. The rats were not deprived food before the administration. Water was provided at will throughout the study.
The test compound was administered intravenously at 4 mg/kg by infusion into the jugular vein for 4 hours. For the intravenous administration, the animals were infused with 12 mL/kg of a solution of the test compound, prepared in 2% Cremophor EL/0.9% NaCl.
The animals were sacrificed under anesthesia after 4 hours of infusion. The blood and the brain were collected from each sacrificed animal 0.5 mL of blood collected in 1.5 mL tubes containing 20 μL of evaporated anticoagulant (solution of sodium heparinate at 1000 IU/mL) was centrifuged at 4500 g for 3 min in order to obtain approximately 200 μL of plasma. The plasma was divided up into 2 aliquots of 70 μL minimum, which were stored at −20° C. until they were treated by protein precipitation and then analysis by liquid chromatography coupled to tandem mass spectrometry (LC-MS/MS) in order to quantify the compound tested.
The brains were immersed in liquid nitrogen directly after they were removed, then stored at −20° C. for analysis. The brains were then ground in the presence of an aqueous/organic solvent mixture in order to obtain a homogenate. These homogenates were then centrifuged and the compound tested was extracted from the supernatant obtained, by liquid-liquid extraction, and then quantified by LC-MS/MS.
The brain penetration in the rats is represented by the Kp, which is the partition coefficient between the brain and the plasma. It is calculated by the ratio of the concentration measured in the brain (Cmax brain) and the plasma (Cmax plasma) after the 4 hours of infusion.

[5] = target: T2, NURR-1/RXRγ (Homo sapiens, UniProt P48443); assay: Transactivation test, NURR-1-Gal4/RXRγ, luciferase reporter in Cos-7 cells; type: cell-based; conditions: for Emax: COS-7, induction level relative to reference XCT0135908 at 2×10^−5 M (=100%), read-out: hNurr1_RXRgFL Emax (%); for EC50: Cos-7 cells, NURR-1-Gal4/RXRγ, luciferase reporter, read-out: hNurr1_RXRgFL EC50
T2 construct: expressed in transfected cells; host or cells: Cos-7 cells
T2 sequence (P48443 whole entry, the tested form may be a part): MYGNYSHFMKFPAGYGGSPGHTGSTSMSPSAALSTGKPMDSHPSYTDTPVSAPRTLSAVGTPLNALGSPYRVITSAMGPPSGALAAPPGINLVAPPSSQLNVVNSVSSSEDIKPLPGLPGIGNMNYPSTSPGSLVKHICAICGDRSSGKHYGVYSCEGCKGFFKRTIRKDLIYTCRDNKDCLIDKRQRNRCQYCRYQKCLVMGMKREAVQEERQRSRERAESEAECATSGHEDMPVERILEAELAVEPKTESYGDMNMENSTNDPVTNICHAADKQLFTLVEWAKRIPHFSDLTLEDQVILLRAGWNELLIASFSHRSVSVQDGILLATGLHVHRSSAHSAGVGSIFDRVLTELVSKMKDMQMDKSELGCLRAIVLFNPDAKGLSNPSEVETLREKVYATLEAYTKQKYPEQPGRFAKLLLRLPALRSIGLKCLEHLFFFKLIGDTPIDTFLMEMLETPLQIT
T2 sequence (P43354 whole entry partner, the tested form may be a part): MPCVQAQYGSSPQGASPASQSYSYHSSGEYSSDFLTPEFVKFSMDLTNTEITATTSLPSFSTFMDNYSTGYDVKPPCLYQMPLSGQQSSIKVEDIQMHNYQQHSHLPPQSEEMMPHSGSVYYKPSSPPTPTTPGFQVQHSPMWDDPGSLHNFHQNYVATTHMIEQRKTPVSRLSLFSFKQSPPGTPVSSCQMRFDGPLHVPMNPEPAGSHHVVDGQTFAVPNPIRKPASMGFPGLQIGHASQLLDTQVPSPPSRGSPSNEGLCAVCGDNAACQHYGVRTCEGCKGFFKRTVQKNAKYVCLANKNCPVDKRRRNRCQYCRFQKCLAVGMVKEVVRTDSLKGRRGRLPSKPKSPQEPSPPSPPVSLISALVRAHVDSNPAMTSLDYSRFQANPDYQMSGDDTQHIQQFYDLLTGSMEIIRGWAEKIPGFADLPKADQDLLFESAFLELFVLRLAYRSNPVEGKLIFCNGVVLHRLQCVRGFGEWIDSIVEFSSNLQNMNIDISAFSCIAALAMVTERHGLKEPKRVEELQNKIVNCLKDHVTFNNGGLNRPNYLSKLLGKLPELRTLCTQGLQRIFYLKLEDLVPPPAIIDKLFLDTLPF
T2 sequence (P04386 1-147 partner limits assumed): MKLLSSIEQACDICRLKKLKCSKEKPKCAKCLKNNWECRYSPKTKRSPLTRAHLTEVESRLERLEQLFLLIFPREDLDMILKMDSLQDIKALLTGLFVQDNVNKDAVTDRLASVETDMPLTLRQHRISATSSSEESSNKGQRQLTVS

T1 sequence (P19793 whole entry, the tested form may be a part): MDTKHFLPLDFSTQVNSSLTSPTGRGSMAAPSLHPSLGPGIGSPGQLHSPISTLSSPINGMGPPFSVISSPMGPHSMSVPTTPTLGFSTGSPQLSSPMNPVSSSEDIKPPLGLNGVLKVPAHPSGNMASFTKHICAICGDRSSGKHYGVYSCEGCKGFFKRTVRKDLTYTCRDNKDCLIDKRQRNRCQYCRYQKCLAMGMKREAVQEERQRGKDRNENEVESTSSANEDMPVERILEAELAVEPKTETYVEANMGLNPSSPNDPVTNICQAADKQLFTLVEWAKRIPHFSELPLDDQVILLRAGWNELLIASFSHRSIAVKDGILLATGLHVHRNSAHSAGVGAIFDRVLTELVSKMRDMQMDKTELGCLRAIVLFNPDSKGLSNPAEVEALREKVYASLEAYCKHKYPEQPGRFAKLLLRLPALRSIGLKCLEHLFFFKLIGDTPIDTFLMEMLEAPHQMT
T1 sequence (P43354 whole entry partner, the tested form may be a part): as the sequence (P43354 whole entry partner, the tested form may be a part) above
T1 sequence (P04386 1-147 partner limits assumed): as the sequence (P04386 1-147 partner limits assumed) above

SMILES | percentage of activity relative to the BDNF reference ([1]; compound 1 μM) | percentage of activity relative to the BDNF reference ([1]; compound 10 μM) | Emax [2] | EC50 [2] | AUC [3] | Cmax [3] | Kp at 4 h [4] | Cmax at 4 h [4] | Emax [5] | EC50 [5] | melting point
Cc1cc(-c2cc(C(C)(C)C)cc(C(C)(C)C)c2)cc(N2CC(C(=O)O)C2)c1 [Example 7, 1-[3-(3,5-di-tertbutylphenyl)-5-methylphenyl]azetidine-3-carboxylic acid] | 61% | 72% | 100% | 0.004 µM | 48600 ng·h/mL | 12800 ng/mL | 0.76 | 6750 ng/mL | 97% | 0.006 µM | –
CC(C)(C)c1cc(-c2cccc(N3CC(C(=O)O)C3)c2)cc(C(C)(C)C)c1 [Example 11, 1[3-(3,5-di-tert-butylphenyl)phenyl]azetidine-3-carboxylic acid] | 78% | 88% | 105% | 0.011 µM | 52000 ng·h/mL | 10300 ng/mL | 1.22 | 4140 ng/mL | 100% | 0.014 µM | –
Cc1cc(-c2ccc(Cl)c(C(F)(F)F)c2)cc(N2CC(C(=O)O)C2)c1 [Example 22, 1-[3-[4-chloro-3-(trifluoromethyl)phenyl]-5-methylphenyl]azetidine-3-carboxylic acid] | 79% | 103% | 91% | 0.009 µM | 72200 ng·h/mL | 18600 ng/mL | 0.14 | 9900 ng/mL | 87% | 0.013 µM | –
CC(C)c1cc2c(c(-c3cccc(N4CC(C(=O)[O-])C4)c3)c1)NCC1(CCC1)O2.[Na+] [Example 196, sodium 1-[3-(7-isopropylspiro[3,4-dihydro-1,4-benzoxazine-2,1′-cyclobutane]-5-yl)phenyl]azetidine-3-carboxylate] | – | – | 98% | 0.011 µM | 34100 ng·h/mL | 14100 ng/mL | 0.44 | 1920 ng/mL | 86% | 0.042 µM | 143 to 154 °C
CC(C)c1cc2c(c(-c3cccc(N4CC(C(=O)O)C4)c3)c1)NCCC2 [Example 199, 1-[3-(6-isopropyl-1,2,3,4-tetrahydroquinolin-8-yl)phenyl]azetidine-3-carboxylic acid] | – | – | 103% | 0.024 µM | 19000 ng·h/mL | 17500 ng/mL | 0.28 | 4920 ng/mL | 117% | 0.095 µM | 77 to 79 °C
CC(C)c1cc2c(c(-c3cccc(N4CC(C(=O)O)C4)c3)c1)NCCC(C)(C)O2 [Example 200, 1-[3-(8-isopropyl-2,2-dimethyl-4,5-dihydro-3H-1,5-benzoxazepin-6-yl)phenyl]azetidine-3-carboxylic acid] | – | – | 95% | 0.127 µM | 2920 ng·h/mL | 3800 ng/mL | 0.19 | 1010 ng/mL | 78% | 0.244 µM | 74 to 79 °C
CC1(C)CN(c2cccc(N3CC(C(=O)[O-])C3)c2)c2ccc(C(C)(C)C)cc2O1.[Na+] [Example 225, sodium 1-[3-(7-tert-butyl-2,2-dimethyl-3-H-1,4-benzoxazin-4-yl)phenyl]azetidine-3-carboxylate] | – | – | 113% | 0.079 µM | 13700 ng·h/mL | 6430 ng/mL | 0.42 | 3260 ng/mL | 122% | 0.173 µM | 223 to 227 °C
CC(C)c1ccc2c(c1)OC(C)(C)CN2c1cccc(N2CC(C(=O)O)C2)c1 [Example 228, 1-[3-(7-isopropyl-2,2 dimethyl-3H-1,4-benzoxazin-4-yl)phenyl]azetidine-3-carboxylic acid] | – | – | 111% | 0.097 µM | 15500 ng·h/mL | 6970 ng/mL | 0.29 | 2160 ng/mL | 112% | 0.147 µM | 64 to 70 °C
CC1(C)C=C(c2cccc(N3CC(C(=O)[O-])C3)c2)c2ccc(C(F)(F)F)cc2O1.[Na+] [Example 263, sodium 1-[3-[2,2-dimethyl-7-(trifluoromethyl)chromen-4-yl]phenyl]azetidine-3-carboxylate] | – | – | 113% | 0.00081 µM | 33700 ng·h/mL | 7560 ng/mL | 0.36 | 7660 ng/mL | 99% | 0.002 µM | 172 to 195 °C
CC1(C)CN(c2cccc(N3CC(C(N)=O)C3)c2)c2ccc(C(F)(F)F)cc2O1 [Example 273, 1-[3-[2,2-dimethyl-7-(trifluoromethyl)-3H-1,4-benzoxazin-4-yl]phenyl]azetidine-3-carboxamide] | – | – | 110% | 0.006 µM | 372 ng·h/mL | 584 ng/mL | 1.81 | 98 ng/mL | 123% | 0.012 µM | 100 °C
